Measurements as given in PubChem BioAssay (NCI).
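Five compound concentrations were applied to cells in 96-well plates for 48 hours; endpoints were derived by simple linear interpolation of the resulting dose-response curve. Abbreviation: GI50, concentration required for 50% inhibition of growth. Definition used: TGI = concentration required for complete inhibition of growth.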

Experiments:
Assay in all cases: NCI-60 cell line screen, 48 h
[1] = tested on: 786-0 renal
[2] = tested on: A549 NSCLC
[3] = tested on: ACHN renal
[4] = tested on: CAKI-1 renal
[5] = tested on: CCRF-CEM leukemia
[6] = tested on: COLO 205 colon
[7] = tested on: DU-145 prostate
[8] = tested on: EKVX NSCLC
[9] = tested on: HCC-2998 colon
[10] = tested on: HCT-116 colon
[11] = tested on: HCT-15 colon
[12] = tested on: HOP-62 NSCLC
[13] = tested on: HOP-92 NSCLC
[14] = tested on: HS 578T breast
[15] = tested on: HT29 colon
[16] = tested on: IGROV1 ovarian
[17] = tested on: K-562 leukemia
[18] = tested on: KM12 colon
[19] = tested on: LOX IMVI melanoma
[20] = tested on: M14 melanoma
[21] = tested on: MALME-3M melanoma
[22] = tested on: MCF7 breast
[23] = tested on: MDA-MB-231 breast
[24] = tested on: MDA-MB-435
[25] = tested on: MOLT-4 leukemia
[26] = tested on: NCI-H226 lung
[27] = tested on: NCI-H23 lung
[28] = tested on: NCI-H460 lung
[29] = tested on: NCI-H522 lung
[30] = tested on: NCI/ADR-RES ovarian
[31] = tested on: OVCAR-3 ovarian
[32] = tested on: OVCAR-4 ovarian
[33] = tested on: OVCAR-5 ovarian
[34] = tested on: OVCAR-8 ovarian
[35] = tested on: PC-3 prostate
[36] = tested on: RPMI-8226 leukemia
[37] = tested on: SF-268 CNS
[38] = tested on: SF-295 CNS
[39] = tested on: SK-MEL-2 melanoma
[40] = tested on: SK-MEL-28 melanoma
[41] = tested on: SK-MEL-5 melanoma
[42] = tested on: SK-OV-3 ovarian
[43] = tested on: SN12C renal
[44] = tested on: SNB-19 CNS
[45] = tested on: SR leukemia
[46] = tested on: SW-620 colon
[47] = tested on: T-47D breast
[48] = tested on: TK-10 renal
[49] = tested on: U251 CNS
[50] = tested on: UACC-257 melanoma
[51] = tested on: UACC-62 melanoma
[52] = tested on: UO-31 renal

## O=C(Cn1c(=O)c(-c2ccccc2)nc2ccccc21)c1cccnc1
[1]
  GI50: > 100 µM
  TGI: > 100 µM
[2]
  GI50: > 100 µM
  TGI: > 100 µM
[3]
  GI50: > 100 µM
  TGI: > 100 µM
[4]
  GI50: > 100 µM
  TGI: > 100 µM
[5]
  GI50: > 100 µM
  TGI: > 100 µM
[6]
  GI50: > 100 µM
  TGI: > 100 µM
[7]
  GI50: > 100 µM
  TGI: > 100 µM
[8]
  GI50: > 100 µM
  TGI: > 100 µM
[9]
  GI50: > 100 µM
  TGI: > 100 µM
[10]
  GI50: > 100 µM
  TGI: > 100 µM
[11]
  GI50: > 100 µM
  TGI: > 100 µM
[12]
  GI50: > 100 µM
  TGI: > 100 µM
[13]
  GI50: 27.7 µM
  TGI: > 100 µM
[14]
  GI50: > 100 µM
  TGI: > 100 µM
[15]
  GI50: > 100 µM
  TGI: > 100 µM
[16]
  GI50: > 100 µM
  TGI: > 100 µM
[17]
  GI50: > 100 µM
  TGI: > 100 µM
[18]
  GI50: > 100 µM
  TGI: > 100 µM
[19]
  GI50: > 100 µM
  TGI: > 100 µM
[20]
  GI50: > 100 µM
  TGI: > 100 µM
[21]
  GI50: > 100 µM
  TGI: > 100 µM
[22]
  GI50: > 100 µM
  TGI: > 100 µM
[23]
  GI50: > 100 µM
  TGI: > 100 µM
[24]
  GI50: > 100 µM
  TGI: > 100 µM
[25]
  GI50: > 100 µM
  TGI: > 100 µM
[26]
  GI50: > 100 µM
  TGI: > 100 µM
[27]
  GI50: > 100 µM
  TGI: > 100 µM
[28]
  GI50: > 100 µM
  TGI: > 100 µM
[29]
  GI50: > 100 µM
  TGI: > 100 µM
[30]
  GI50: > 100 µM
  TGI: > 100 µM
[31]
  GI50: > 100 µM
  TGI: > 100 µM
[32]
  GI50: 46.2 µM
  TGI: > 100 µM
[33]
  GI50: > 100 µM
  TGI: > 100 µM
[34]
  GI50: > 100 µM
  TGI: > 100 µM
[35]
  GI50: > 100 µM
  TGI: > 100 µM
[36]
  GI50: > 100 µM
  TGI: > 100 µM
[37]
  GI50: > 100 µM
  TGI: > 100 µM
[38]
  GI50: > 100 µM
  TGI: > 100 µM
[39]
  GI50: > 100 µM
  TGI: > 100 µM
[40]
  GI50: > 100 µM
  TGI: > 100 µM
[41]
  GI50: > 100 µM
  TGI: > 100 µM
[42]
  GI50: > 100 µM
  TGI: > 100 µM
[43]
  GI50: > 100 µM
  TGI: > 100 µM
[44]
  GI50: > 100 µM
  TGI: > 100 µM
[45]
  GI50: > 100 µM
  TGI: > 100 µM
[46]
  GI50: > 100 µM
  TGI: > 100 µM
[47]
  GI50: > 100 µM
  TGI: > 100 µM
[48]
  GI50: > 100 µM
  TGI: > 100 µM
[49]
  GI50: > 100 µM
  TGI: > 100 µM
[50]
  GI50: > 100 µM
  TGI: > 100 µM
[51]
  GI50: > 100 µM
  TGI: > 100 µM
[52]
  GI50: > 100 µM
  TGI: > 100 µM
